Results taken from patent US9169199B2, “Cycloalkyl guanidine F1F0-ATPase inhibitors and therapeutic uses thereof” (Lycera Corporation, priority 2010, dated 2015).

Assays:
Ramos cells = assay: Cytotoxicity in Ramos cells; format: cell-based; details: Homo sapiens, read-out: Ramos cell EC50
Protocol: (§1) Compounds in Example 4 above were tested for activity against F1F0-ATPase by measuring ATP synthesis. In addition, the compounds were assessed for cytotoxicity in Ramos cells. Inhibition of ATP synthesis by the F1F0-ATPase and cytotoxicity in Ramos cells were measured according to the procedures described in K. M. Johnson et al. Chemistry & Biology 2005, 12, 485-496.

F1F0-ATPase = biological target: T1, F1F0-ATPase (Bos taurus, UniProt P13621); assay: Inhibition of ATP synthesis by the F1F0-ATPase; format: biochemical
T1 construct: from tissue
Protocol: as §1

SMILES	IC50 (F1F0-ATPase)	EC50 (Ramos cells)
CS(=O)(=O)N[C@H]1CC[C@H](N/C(=N\C(=O)c2ccc(F)c(F)c2)Nc2cccc(C(F)(F)F)c2)CC1 [Compound 3]	< 10 µM	< 10 µM
O=C(/N=C(/Nc1cccc(C(F)(F)F)c1)N[C@H]1CC[C@H](O)CC1)c1ccc(F)c(F)c1 [Compound 4]	< 10 µM	< 10 µM
O=C(/N=C(/Nc1cc(F)cc(Cl)c1)N[C@H]1CC[C@H](O)CC1)c1ccc(F)c(F)c1 [Compound 6]	< 10 µM	< 10 µM
O=C(/N=C(/Nc1cc(F)cc(Cl)c1)N[C@H]1CC[C@H](Nc2ncccn2)CC1)c1ccc(F)c(F)c1 [Compound 9]	< 10 µM	< 10 µM
COC(=O)N[C@H]1CC[C@H](N/C(=N/C(=O)c2ccc(F)c(F)c2)Nc2cc(F)cc(Cl)c2)CC1 [Compound 11]	< 10 µM	< 10 µM
N[C@H]1CC[C@H](N/C(=N/C(=O)c2ccc(F)c(F)c2)Nc2cc(F)cc(Cl)c2)CC1 [Compound 12]	> 10 µM	< 10 µM
COC(=O)N[C@H]1CC[C@H](N/C(=N/C(=O)c2ccc(F)c(F)c2)Nc2cccc(C(F)(F)F)c2)CC1 [Compound 15]	< 10 µM	< 10 µM
O=C(/N=C(/NCc1ccccc1C(F)(F)F)N[C@H]1CC[C@H](O)CC1)c1ccc(C(F)(F)F)cc1 [Compound 17]	< 10 µM	< 10 µM
CCOC(=O)N[C@H]1CC[C@H](N/C(=N\C(=O)c2ccc(C(F)(F)F)cc2)Nc2cccc(Cl)c2)CC1 [Compound 18]	< 10 µM	< 10 µM
CCOC(=O)N[C@H]1CC[C@H](N/C(=N/C(=O)c2ccc(F)c(F)c2)Nc2cccc(Cl)c2)CC1 [Compound 19]	< 10 µM	< 10 µM
O=C(/N=C(/Nc1cccc(Cl)c1)N[C@H]1CC[C@H](Nc2ncccn2)CC1)c1ccc(F)c(F)c1 [Compound 20]	< 10 µM	< 10 µM
O=C(/N=C(/Nc1cc(F)cc(Cl)c1)NC1CCC(O)CC1)c1cccc(Cl)c1 (stereo not drawn) [Compound 26]		< 10 µM
O=C(/N=C(/Nc1cc(F)cc(Cl)c1)N[C@H]1CC[C@H](O)CC1)c1cccc(Cl)c1 [Compound 26]	< 10 µM	
O=C(/N=C(/NCc1ccccc1C(F)(F)F)N[C@H]1CC[C@H](O)CC1)c1ccc(F)c(F)c1 [Compound 32]		> 10 µM
CCOC(=O)N[C@H]1CC[C@H](N/C(=N/C(=O)c2ccc(F)c(F)c2)NC2CCCC2)CC1 [Compound 70]		> 10 µM
O=C(/N=C(/Nc1cc(F)cc(Cl)c1)N[C@H]1CCCC[C@@H]1O)c1ccc(C(F)(F)F)cc1 [Compound 127]		< 10 µM

Second part, led by results:

IC50 (F1F0-ATPase)	SMILES	EC50 (Ramos cells)
< 10 µM	CC(C)(C)c1ccccc1N/C(=N\C(=O)c1ccc(C(F)(F)F)cc1)N[C@H]1CC[C@H](O)CC1 [Compound 1]	< 10 µM
< 10 µM	O=C(/N=C(\Nc1cccc(C(F)(F)F)c1)N[C@H]1CC[C@H](O)CC1)c1ccc(C(F)(F)F)cc1 [Compound 2]	< 10 µM
> 10 µM	O=C(/N=C(/Nc1cccc(Cl)c1)N[C@H]1CC[C@H](O)CC1)c1ccc(F)c(F)c1 [Compound 5]	< 10 µM
< 10 µM	O=C(/N=C(/Nc1cc(F)cc(Cl)c1)N[C@H]1CC[C@H](O)CC1)c1ccc(C(F)(F)F)cc1 [Compound 7]	< 10 µM
< 10 µM	O=C(/N=C(/Nc1cccc(Cl)c1)N[C@H]1CC[C@H](O)CC1)c1ccc(C(F)(F)F)cc1 [Compound 8]	< 10 µM
< 10 µM	CCOC(=O)N[C@H]1CC[C@H](N/C(=N/C(=O)c2ccc(F)c(F)c2)Nc2cc(F)cc(Cl)c2)CC1 [Compound 10]	< 10 µM
> 10 µM	N[C@H]1CC[C@H](N/C(=N/C(=O)c2ccc(F)c(F)c2)Nc2cccc(C(F)(F)F)c2)CC1 [Compound 13]	< 10 µM
< 10 µM	CCOC(=O)N[C@H]1CC[C@H](N/C(=N/C(=O)c2ccc(F)c(F)c2)Nc2cccc(C(F)(F)F)c2)CC1 [Compound 14]	< 10 µM
> 10 µM	O=C(/N=C(\NCc1ccccc1C(F)(F)F)N[C@H]1CC[C@H](O)CC1)c1ccc(F)c(F)c1 [Compound 16]	< 10 µM
